The text below walks through data of article PMC6212833 (mBio, 2018).

The structures appear in SMILES notation. Like-named read-outs stand apart in the source and are kept apart here. Marks after values point to notes of the source that are not given here.

For orientation: CC50 means the concentration at which the toxic effect on the cells reaches its halfway point. In general, IC50 refers to the concentration at which inhibition is half-maximal. A word on the inhibition: it is the share of the control response that was lost under treatment. Read a high inhibition as a strong effect.

Series [1] concerns B. mandrillaris. The experiment in a line: Encystment assay, counts of cysts and trophozoites. The class given is cell-based, Balamuthia mandrillaris. As to conditions: 72 h of treatment with different drug concentrations. The protocol: (§1) B. mandrillaris trophozoites were seeded at 4,000 amoebae per well into opaque and clear-bottom 96-well plates (Corning). Homogenous populations of B. mandrillaris cysts generated by galactose induction were seeded at 4,000 amoebae per well into opaque 96-well plates. HFF-1 (fibroblast), H4 (glial), U87 (glial), HEK-293T (kidney), and Hep-G2 (liver) cells were seeded at 3,000 cells per well in opaque 96-well plates 24 h prior to addition of drug. Stocks of nitroxoline (Selleck Chemicals) were dissolved in 100% DMSO at 10 mM. Stocks of azithromycin (Selleck Chemicals), pentamidine isethionate (Selleck Chemicals), and miltefosine (Selleck Chemicals) were dissolved in water at 10 mM. Drug stocks were serially diluted in water to generate 12-point dilution series, which were then used to treat assay wells containing B. mandrillaris or human cells at final concentrations ranging from 0.39 µM to 400 µM in 100-µl total well volumes. Control wells were treated with vehicle (DMSO or water) at concentrations corresponding to the final vehicle concentrations in each drug dilution series. After incubation for 72 h, 50 µl of CTG was added to all assay wells. Luminescence was measured with a Promega GloMax-Multi+ plate reader 2, 4, and […] after CTG addition. All dose-response experiments were performed with at least three independent biological replicates. IC50 values were determined as previously described. To quantify encystment under treated and untreated conditions, amoebae in individual assay wells were resuspended thoroughly and the number of cysts and number of trophozoites in 10-µl samples were counted by the use of a hemocytometer (SKC, Inc.). Cysts and trophozoites are morphologically distinct, making them simple to distinguish with bright-field microscopy (example images are shown in Fig. S1 in the supplemental material). Encystment assays were performed with three independent biological replicates.

Series [2] is described as follows: Cytotoxicity dose response, HFF-1. The class given is cell-based. As to conditions: human, HFF-1 (fibroblast) cells, unit not given in Table S3, drug concentrations in µM, read-out: CC50 HFF-1 cell line. The method, then: as §1
Series [3] in a line: Cytotoxicity dose response, U87. The class given is cell-based. As to conditions: human, U87 (glial) cells, unit not given in Table S3, drug concentrations in µM, read-out: CC50 U87 cell line. The protocol: as §1
Series [4] in a line: Cytotoxicity dose response, HEK-293T. The class given is cell-based. As to conditions: human, HEK-293T (kidney) cells, unit not given in Table S3, drug concentrations in µM, read-out: CC50 HEK-293T cell line. The protocol: as §1
Series [5] can be described thus: Cytotoxicity dose response, H4. The series is classed as cell-based. As to conditions: human, H4 (glial) cells, unit not given in Table S3, drug concentrations in µM, read-out: CC50 H4 cell line. The method, then:
as §1

Series [6] has as its system B. mandrillaris trophozoites. The experiment in a line: Side-by-side dose response, trophozoite viability. The class given is cell-based, Balamuthia mandrillaris. As to conditions: Balamuthia mandrillaris, 72 h, read-out: IC50, B. mandrillaris trophozoites, 72 h. The protocol:
as §1

The test system of the next series is B. mandrillaris cysts. Nature of the series: Dose response, viability of preformed galactose-induced cysts. The series is classed as cell-based, Balamuthia mandrillaris. As to conditions: 72 h. The protocol:
Following the findings of a previous study, encystment of B. mandrillaris was induced by galactose exposure ([74]). B. mandrillaris trophozoites were grown to log phase in axenic media, and galactose was added to reach a final concentration of 12% (vol/vol). Amoebae were cultured in the induction medium until trophozoites were no longer observed (approximately 10 days). Galactose-induced cysts transition back to trophozoites after approximately 3 days of incubation in galactose-free axenic medium. Therefore, all assays with cysts were completed in the induction medium. […] All incubation steps for B. mandrillaris growth were carried out at 37°C with 5% CO2.
as §1

A short description of series [7]: Cytotoxicity, mean of all cell lines. The class given is cell-based. Particulars: human, U87, H4, HEK-293T, HFF-1 and Hep-G2 cell lines (mean of all), unit inferred. The method, then: as §1
The test system of series [8] is B. mandrillaris. Details: method as in PMID 15347743, PMID 23869955, PMID 16579814. As to conditions: in vitro; cited from earlier work.
The nature of series [9]: Cytotoxicity dose response, Hep-G2. The series is classed as cell-based. Particulars: human, Hep-G2 (liver) cells, unit not given in Table S3, drug concentrations in µM, read-out: CC50 Hep-G2 cell line. The method, then:
as §1

The subject of series [10] is B. mandrillaris. Nature of the series: Recrudescence assay on HFF-1 monolayer after drug treatment. The series is classed as cell-based, Balamuthia mandrillaris.
Series [11] has as its system B. mandrillaris trophozoites. The experiment in a line: Drug combination dose matrices, trophozoite viability (EOHSA model). The series is classed as cell-based, Balamuthia mandrillaris. As to conditions: 72 h. The protocol:
Experiments measuring the effect of drug combinations were carried out similarly to the dose-response experiments described above. B. mandrillaris trophozoites were seeded into opaque 96-well plates (Corning) at a density of 4,000 amoebae per well and then treated with concentrations of nitroxoline that differed across the rows of each plate and with concentrations of either miltefosine or pentamidine isethionate that differed down the columns to generate 7-by-7 dose combination matrices. Final drug concentrations ranged from 0.5 to 10 µM, from 10 to 100 µM, and from 1 to 100 µM for nitroxoline, miltefosine, and pentamidine isethionate, respectively. After incubation with drug or vehicle was performed for 72 h, CTG was added to all assay wells and luminescence was measured with a Promega Glomax-Multi+ plate reader. The percent effect of each drug combination was calculated as the reduction in luminescence value relative to vehicle-only controls. The additive effect of drug combinations was assessed using the excess over highest single agent (EOHSA) model ([76], [77]). […] Drug combination experiments were performed with three independent replicates.

Series [12] deals with HFF-1 human fibroblast cells. The experiment in a line: Secondary screening dose response, toxicity to HFF-1 cells. Particulars: Homo sapiens, HFF-1; 72 h; approximated from dose-response curves; read-out: HFF1 IC50. The series is classed as cell-based.
Method: (§2) Secondary screening of hit compounds consisted of dose-response experiments to measure the toxicity of each compound to B. mandrillaris trophozoites, HFF-1 human fibroblast cells, and H4 human neuroglioma cells. Four 384-well plates were prepared prior to addition of drug as follows: one opaque plate (Corning) seeded with 3,000 HFF-1 cells per well in 60 µl complete media, one opaque plate seeded with 2,000 H4 cells per well in 60 µl complete media, one opaque plate containing 30 µl axenic media, and one clear plate (Corning) containing 30 µl axenic media. Opaque plates were used to measure the viability of trophozoites in the CTG assay, and clear plates were used for microscopic examination of cyst formation. HFF-1 and H4 plates were seeded 24 h prior to drug addition. The selected primary screen hits were added from 10 mM DMSO stocks into wells of all four test plates to reach final concentrations ranging from 0.06 µM to 30 µM (10 concentrations, 2-fold serial dilution). Negative-control wells received concentrations of DMSO corresponding to the amount of DMSO in each tested drug well (reaching a maximum of 0.3% DMSO). B. mandrillaris trophozoites were resuspended in axenic media and added to the plates containing drug dilutions in axenic media at a density of 3,000 amoebae per well in a final volume of 60 µl media. All plates were incubated for 72 h. Throughout the incubation period, the clear-bottom B. mandrillaris plate was monitored for large-scale changes to population encystment in response to drug treatment. After the 72-h incubation, 30 µl of CTG reagent was added to all wells of the opaque assay plates and luminescence was measured with a Promega GloMax-Multi+ plate reader at 2, 4, and 8 h after CTG addition.
Series [13] relates to H4 human neuroglioma cells. Nature of the series: Secondary screening dose response, toxicity to H4 cells. The class given is cell-based. Particulars: Homo sapiens; 72 h; approximated from dose-response curves.
For series [14], the system named is B. mandrillaris trophozoites. The experiment in a line: microbe, parasite or virus in culture. As to conditions: Balamuthia mandrillaris, 72 h. The class given is cell-based, Balamuthia mandrillaris.
Series [15] relates to B. mandrillaris trophozoites. The experiment in a line: Secondary screening dose response, B. mandrillaris trophozoites. The series is classed as cell-based, Balamuthia mandrillaris. As to conditions: Balamuthia mandrillaris, 72 h, read-out: B. mandrillaris IC50.
Method: as §2
Where [16] appears, read: Balamuthia mandrillaris, read-out: IC50, B. mandrillaris cysts, preformed cysts, 12% galactose induction medium, 72 h.
The mark [17] stands for this setting: preformed cysts, 12% galactose induction medium, read-out: IC50, B. mandrillaris cysts.
[18] abbreviates: 28 µM for 72 h, then drug-free coculture with HFF-1, NRT = no recovery of trophozoites or host cell destruction observed through 28 days.
Setting [19] is: 56 µM for 72 h, then drug-free coculture with HFF-1, 28-day experiment.

As to `CC[C@H]1OC(=O)[C@H](C)[C@@H](O[C@H]2C[C@@](C)(OC)[C@@H](O)[C@H](C)O2)[C@H](C)[C@@H](O[C@@H]2O[C@H](C)C[C@H](N(C)C)[C@H]2O)[C@](C)(O)C[C@@H](C)CN(C)[C@H](C)[C@@H](O)[C@]1(C)O` [Azithromycin], the “encystment response” value with B. mandrillaris [1] is “no substantial number of cysts was observed at any concentration”. For the same compound, the CC50 at 72 h in series [2] turned out to be 116 µM; in series [3], 55 µM; in [4], 120 µM; in series [5] it was 95 µM; in series [7] it was 94.4 µM; in series [9], 86.4 µM. The IC50 amounted to 244 µM in series [6] and 788 µM with B. mandrillaris cysts (Balamuthia mandrillaris, preformed cysts, 12% galactose induction medium, read-out: IC50, B. mandrillaris cysts). The “inhibition of amoebic growth” value in the series with B. mandrillaris [8] is on record as “amoebicidal or amoebistatic activity”.

For `CCCCCCCCCCCCCCCCOP(=O)([O-])OCC[N+](C)(C)C` [Miltefosine], in the series on B. mandrillaris [1], the “encystment response” value is “no substantial number of cysts was observed at any concentration”. The half-maximal cytotoxic concentration (CC50) at 72 h in series [2] came out at 67.1 µM; in [3], 34.7 µM; in series [4] it was 68.8 µM; in series [5] it was 8.4 µM; in series [7], 49 µM; in series [9] it was 66.1 µM. Moreover, the results for the concentration for half-maximal inhibition (IC50) (in series [6]; with B. mandrillaris cysts (setting [16]); in the series on B. mandrillaris cysts (setting [17])) were 63.2 µM, 76.5 µM and 76.5 µM, respectively. Also, the “Mean no. of days for host cell clearance ± SE” value in the series on B. mandrillaris [10] (setting [18]) was 1.5 ± 0.33 days; with B. mandrillaris [10] (setting [19]), 3.5 ± 2.64 days; in the series on B. mandrillaris [10] (84 µM for 72 h, incomplete recovery of trophozoites and destruction of host cells on day 28) it was >28^b days; with B. mandrillaris [10] ([…] for 72 h, NRT = no recovery of trophozoites or host cell destruction observed through 28 days), “NRT^a”. Moreover, in the series on B. mandrillaris [10] (72 h treatment, no recovery after 28 days of coculture), the “concentration that completely eliminated B. mandrillaris populations” value was 112 µM. For the same compound, the “Percent inhibition of B. mandrillaris viability” value is -12% in [11] (Fig S2A, miltefosine 10 µM alone); -13% in [11] (Fig S2A, miltefosine 30 µM alone); 19% in series [11] (Fig S2A, miltefosine 50 µM alone); 44% in series [11] (Fig S2A, miltefosine 60 µM alone); 91% in series [11] (Fig S2A, miltefosine 80 µM alone); 96% in series [11] (Fig S2A, miltefosine 100 µM alone). In addition, the “inhibition of amoebic growth” value with B. mandrillaris [8] was “amoebicidal or amoebistatic activity”.

On to `N=C(N)c1ccc(OCCCCCOc2ccc(C(=N)N)cc2)cc1` [Pentamidine isethionate], for which the IC50 in series [12] was over 30 µM; in [13], 8 µM; in [15], 11 µM; in [6], 9.1 µM; in the series on B. mandrillaris cysts (setting [16]), 26.3 µM; with B. mandrillaris cysts (setting [17]), 26.3 µM. In the series with B. mandrillaris [1], the “encystment response” value was “increase in both the total number and the proportion of cysts”. The compound further came in with an inhibition at 20 µM in [14] of 35%. The CC50 at 72 h in series [2] turned out to be 23.4 µM; in [3], 20.7 µM; in series [4], 4.8 µM; in [5], 5.7 µM; in [7] it was 11.1 µM; in series [9] it was 0.7 µM. In addition, the “Mean no. of days for host cell clearance ± SE” value in the series with B. mandrillaris [10] (3.5 µM for 72 h, then drug-free coculture with HFF-1, 28-day experiment) is 1.33 ± 0.33 days; with B. mandrillaris [10] (7 µM for 72 h, then drug-free coculture with HFF-1, 28-day experiment), 7 ± 1.15 days; with B. mandrillaris [10] (14 µM for 72 h, then drug-free coculture with HFF-1, 28-day experiment), 13 ± 2.51 days; in the series on B. mandrillaris [10] (setting [18]), 15.33 ± 2.56 days; in the series with B. mandrillaris [10] (setting [19]), 16 ± 2 days. Besides, the “Percent inhibition of B. mandrillaris viability” value is given as -1% in series [11] (Fig S2B, pentamidine 1 µM alone); 32% in series [11] (Fig S2B, pentamidine 5 µM alone); 51% in series [11] (Fig S2B, pentamidine 10 µM alone); 62% in series [11] (Fig S2B, pentamidine 20 µM alone); 68% in [11] (Fig S2B, pentamidine 50 µM alone); 82% in series [11] (Fig S2B, pentamidine 100 µM alone). Moreover, in the series with B. mandrillaris [8], the “inhibition of amoebic growth” value was “amoebicidal or amoebistatic activity”.
